In ChEMBL document CHEMBL3580531, “Biotransformation of Curcumenol by Mucor polymorphosporus” (J Nat Prod, 2015):

System: RAW264.7
Assay: Antiinflammatory activity in mouse RAW264.7 cells assessed as inhibition of LPS-induced nitric oxide production after 1 day by Griess assay
Type: functional, cell-based
Details: RAW264.7, 24 h

| Structure (SMILES) | IC50 |
| --- | --- |
| CC1=C[C@@]2(O)O[C@@]3(C/C2=C(/C)CO)[C@@H](C)CC[C@@H]13 | 9.6 µM |
| CC(C)=C1C[C@@]23O[C@]1(O)C[C@](C)(O)[C@@H]2CC[C@@H]3C | > 50 µM |
| CC1=C[C@@]2(O)O[C@]3(CC2=C(C)C)[C@H]1[C@H](O)C[C@@H]3C | 18.5 µM |
| COc1ccc2c(c1)c(CC(=O)O)c(C)n2C(=O)c1ccc(Cl)cc1 [INDOMETHACIN] | 14.1 µM |

The next compounds have a lower IC50 than those just listed; values first:

| IC50 | Structure (SMILES) |
| --- | --- |
| 6.4 µM | CC(C)=C1C[C@@]23O[C@]1(O)C=C(CO)[C@@H]2CC[C@@H]3C |
| 6.4 µM | Cc1cc(=O)c(C(C)(C)O)cc2c1C(=O)C[C@@H]2C |
| 2.8 µM | Cc1cc(C(=O)O)cc2c1C(=O)C[C@@H]2C |
| 5.4 µM | CC1=C[C@]2(O)O[C@@]3(CC2=C(C)C)[C@@H](C)CC[C@@H]13 [CURCUMENOL] |
